Results reported in US20230148005A1, “MACROCYCLIC COMPOUNDS AND USES THEREOF” (THESEUS PHARMACEUTICALS, INC., priority 2020, published 2023).
Like-named read-outs stand apart in the source and are kept apart here.

Assays:
EGFR^L858R = EGFR^L858R (Homo sapiens, UniProt P00533, L858R); experiment: in vitro kinase assay (HTRF KinEASE-TK kit), L; format: biochemical; details: kinase inhibition
From the text: (§1) Assays using an in vitro kinase assay kit (HTRF KinEASE-TK kit) can be used to study the inhibitory activity of compounds described herein with respect to EGFR mutants such as EGFR^L858R, EGFR^L58R/T790M, and EGFR^L858R/T790M/C^797S.

Ba/F3 EGFR-Del19/T790M = Ba/F3 EGFR-Del19/T790M (Homo sapiens, UniProt P00533, T790M, cells depend on it, form not given); experiment: Ba/F3 viability assay (CellTiter-Glo), DT; format: cell-based; details: anti-proliferation, read-out: BaF3 DT IC50
From the text: (§2) Inhibition of cell proliferation can be studied using Ba/F3 viability assays, including the Promega CellTiter-Glo cell viability assay. This assay can be used to study the effect of compounds described herein in the following assays: (1) Ba/F3 Parental; (2) Ba/F3 EGFR-Del19/T790M; (3); Ba/F3 EGFR-Del19/C797S; and (4) Ba/F3 EGFR-Del19/T790M/C797S.

[1] = biological target: Ba/F3 EGFR-Del19/T790M/C797S (Homo sapiens, UniProt P00533, T790M/C797S, cells depend on it, form not given); experiment: Ba/F3 viability assay (CellTiter-Glo), DTC; format: cell-based; details: anti-proliferation, read-out: BaF3 DTC IC50
From the text: as §2

EGFR^L58R/T790M = EGFR^L58R/T790M (Homo sapiens, UniProt P00533, L858R/T790M); experiment: in vitro kinase assay (HTRF KinEASE-TK kit), LT; format: biochemical; details: kinase inhibition
From the text: as §1

Ba/F3 Parental = experiment: Ba/F3 viability assay (CellTiter-Glo), parental; format: cell-based
From the text: as §2

Ba/F3 EGFR-Del19/C797S = Ba/F3 EGFR-Del19/C797S (Homo sapiens, UniProt P00533, C797S, cells depend on it, form not given); experiment: Ba/F3 viability assay (CellTiter-Glo), DC; format: cell-based; details: anti-proliferation, read-out: BaF3 DC IC50
From the text: as §2

EGFR^L858R/T790M/C^797S = EGFR^L858R/T790M/C^797S (Homo sapiens, UniProt P00533, C797S/L858R/T790M); experiment: in vitro kinase assay (HTRF KinEASE-TK kit), LTC; format: biochemical; details: kinase inhibition
From the text: as §1

[2] = Mus musculus, BaF3, anti-proliferation

Chain of Ba/F3 EGFR-Del19/T790M (P00533 with tags, fused parts or gaps DEL746-750/T790M, form open): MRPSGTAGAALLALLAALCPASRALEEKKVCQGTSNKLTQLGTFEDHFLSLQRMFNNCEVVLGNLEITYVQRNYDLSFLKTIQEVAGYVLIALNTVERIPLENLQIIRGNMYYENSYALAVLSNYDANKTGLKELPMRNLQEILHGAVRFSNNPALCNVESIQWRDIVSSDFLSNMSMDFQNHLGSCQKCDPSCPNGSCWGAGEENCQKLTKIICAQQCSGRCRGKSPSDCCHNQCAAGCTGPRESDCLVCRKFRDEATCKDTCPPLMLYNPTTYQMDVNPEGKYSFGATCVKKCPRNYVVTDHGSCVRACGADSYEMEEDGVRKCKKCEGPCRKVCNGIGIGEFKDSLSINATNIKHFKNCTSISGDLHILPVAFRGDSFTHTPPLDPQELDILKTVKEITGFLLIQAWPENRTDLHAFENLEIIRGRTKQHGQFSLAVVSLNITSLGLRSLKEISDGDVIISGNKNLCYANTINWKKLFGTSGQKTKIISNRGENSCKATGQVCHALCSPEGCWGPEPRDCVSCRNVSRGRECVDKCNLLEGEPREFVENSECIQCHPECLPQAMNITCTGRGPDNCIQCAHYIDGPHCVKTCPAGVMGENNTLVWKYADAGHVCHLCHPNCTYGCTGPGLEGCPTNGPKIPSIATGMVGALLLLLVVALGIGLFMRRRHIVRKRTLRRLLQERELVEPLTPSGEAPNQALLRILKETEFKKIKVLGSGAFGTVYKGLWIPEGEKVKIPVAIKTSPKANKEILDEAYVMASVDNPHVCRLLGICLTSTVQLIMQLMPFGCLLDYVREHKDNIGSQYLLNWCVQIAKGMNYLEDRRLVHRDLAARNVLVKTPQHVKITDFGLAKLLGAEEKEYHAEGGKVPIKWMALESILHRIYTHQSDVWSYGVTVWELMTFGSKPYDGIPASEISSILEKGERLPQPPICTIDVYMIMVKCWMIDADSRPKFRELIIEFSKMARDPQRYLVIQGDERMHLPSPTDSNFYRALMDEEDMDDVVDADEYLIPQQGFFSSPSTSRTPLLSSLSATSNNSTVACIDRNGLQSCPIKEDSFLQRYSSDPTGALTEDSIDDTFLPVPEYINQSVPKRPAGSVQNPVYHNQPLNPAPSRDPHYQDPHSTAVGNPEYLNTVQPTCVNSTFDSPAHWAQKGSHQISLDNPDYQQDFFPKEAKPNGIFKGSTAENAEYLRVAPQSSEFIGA
Chain of Ba/F3 EGFR-Del19/C797S (P00533 with tags, fused parts or gaps DEL746-750/C797S, form open): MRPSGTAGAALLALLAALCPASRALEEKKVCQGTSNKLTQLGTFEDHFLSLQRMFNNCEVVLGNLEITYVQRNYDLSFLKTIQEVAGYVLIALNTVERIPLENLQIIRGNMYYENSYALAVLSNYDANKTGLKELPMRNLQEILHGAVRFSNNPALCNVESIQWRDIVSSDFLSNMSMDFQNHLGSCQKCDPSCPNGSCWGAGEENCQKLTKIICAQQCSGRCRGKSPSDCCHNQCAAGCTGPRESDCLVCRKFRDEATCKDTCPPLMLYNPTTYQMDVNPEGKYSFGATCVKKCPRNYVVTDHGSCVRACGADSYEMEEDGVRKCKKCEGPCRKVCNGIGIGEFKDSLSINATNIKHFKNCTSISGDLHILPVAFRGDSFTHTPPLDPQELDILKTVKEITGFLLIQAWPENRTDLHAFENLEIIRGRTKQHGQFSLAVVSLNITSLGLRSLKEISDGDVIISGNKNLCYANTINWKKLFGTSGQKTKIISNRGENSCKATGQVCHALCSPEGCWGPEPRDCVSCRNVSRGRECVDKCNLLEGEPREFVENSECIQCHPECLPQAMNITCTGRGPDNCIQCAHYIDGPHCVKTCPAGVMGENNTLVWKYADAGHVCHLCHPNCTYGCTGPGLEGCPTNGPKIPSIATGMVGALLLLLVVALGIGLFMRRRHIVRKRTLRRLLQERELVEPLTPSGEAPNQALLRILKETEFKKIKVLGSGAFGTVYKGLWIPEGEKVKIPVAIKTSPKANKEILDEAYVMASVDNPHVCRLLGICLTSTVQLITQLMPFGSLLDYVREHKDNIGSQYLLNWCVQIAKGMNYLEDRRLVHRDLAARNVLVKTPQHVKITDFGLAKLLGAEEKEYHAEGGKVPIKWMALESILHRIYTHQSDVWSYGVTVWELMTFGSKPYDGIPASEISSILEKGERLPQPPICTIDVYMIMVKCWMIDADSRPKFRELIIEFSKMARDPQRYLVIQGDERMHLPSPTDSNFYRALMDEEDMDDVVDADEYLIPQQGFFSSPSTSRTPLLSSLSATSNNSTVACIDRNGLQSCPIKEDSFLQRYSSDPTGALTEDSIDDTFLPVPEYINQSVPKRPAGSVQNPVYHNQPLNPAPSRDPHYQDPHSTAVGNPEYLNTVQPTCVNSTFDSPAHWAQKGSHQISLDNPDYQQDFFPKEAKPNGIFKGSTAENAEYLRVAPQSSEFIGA
Chain of EGFR^L58R/T790M (P00533 25-1210 T790M/L858R): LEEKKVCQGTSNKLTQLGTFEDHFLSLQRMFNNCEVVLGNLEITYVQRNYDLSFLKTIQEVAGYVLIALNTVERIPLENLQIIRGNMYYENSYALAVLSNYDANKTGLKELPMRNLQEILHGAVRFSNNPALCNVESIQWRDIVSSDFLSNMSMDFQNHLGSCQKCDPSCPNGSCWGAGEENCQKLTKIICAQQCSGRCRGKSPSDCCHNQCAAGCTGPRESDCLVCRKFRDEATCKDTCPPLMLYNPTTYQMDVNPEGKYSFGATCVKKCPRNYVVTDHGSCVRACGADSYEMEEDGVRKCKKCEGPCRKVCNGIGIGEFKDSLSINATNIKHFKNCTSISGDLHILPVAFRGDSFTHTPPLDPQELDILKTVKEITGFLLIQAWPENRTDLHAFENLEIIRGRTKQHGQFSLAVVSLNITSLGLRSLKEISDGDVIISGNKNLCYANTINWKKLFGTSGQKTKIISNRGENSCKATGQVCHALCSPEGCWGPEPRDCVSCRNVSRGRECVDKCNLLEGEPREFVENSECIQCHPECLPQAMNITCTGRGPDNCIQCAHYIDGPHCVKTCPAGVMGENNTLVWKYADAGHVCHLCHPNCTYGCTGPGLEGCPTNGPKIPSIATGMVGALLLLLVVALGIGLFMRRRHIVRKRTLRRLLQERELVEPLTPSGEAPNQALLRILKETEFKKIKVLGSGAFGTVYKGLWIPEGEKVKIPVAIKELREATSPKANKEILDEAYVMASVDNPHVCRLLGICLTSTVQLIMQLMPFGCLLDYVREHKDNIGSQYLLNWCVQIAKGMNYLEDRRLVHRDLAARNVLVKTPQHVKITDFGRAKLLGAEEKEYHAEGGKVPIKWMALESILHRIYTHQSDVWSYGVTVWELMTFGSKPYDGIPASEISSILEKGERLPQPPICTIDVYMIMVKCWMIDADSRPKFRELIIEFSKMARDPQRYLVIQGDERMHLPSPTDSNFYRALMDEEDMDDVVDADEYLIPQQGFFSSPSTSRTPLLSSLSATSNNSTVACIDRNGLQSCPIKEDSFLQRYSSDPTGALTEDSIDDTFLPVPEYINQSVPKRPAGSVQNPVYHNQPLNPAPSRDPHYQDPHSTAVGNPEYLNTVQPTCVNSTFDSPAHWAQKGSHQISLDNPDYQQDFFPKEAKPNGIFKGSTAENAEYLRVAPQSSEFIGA
Chain of EGFR^L858R (P00533 25-1210 L858R): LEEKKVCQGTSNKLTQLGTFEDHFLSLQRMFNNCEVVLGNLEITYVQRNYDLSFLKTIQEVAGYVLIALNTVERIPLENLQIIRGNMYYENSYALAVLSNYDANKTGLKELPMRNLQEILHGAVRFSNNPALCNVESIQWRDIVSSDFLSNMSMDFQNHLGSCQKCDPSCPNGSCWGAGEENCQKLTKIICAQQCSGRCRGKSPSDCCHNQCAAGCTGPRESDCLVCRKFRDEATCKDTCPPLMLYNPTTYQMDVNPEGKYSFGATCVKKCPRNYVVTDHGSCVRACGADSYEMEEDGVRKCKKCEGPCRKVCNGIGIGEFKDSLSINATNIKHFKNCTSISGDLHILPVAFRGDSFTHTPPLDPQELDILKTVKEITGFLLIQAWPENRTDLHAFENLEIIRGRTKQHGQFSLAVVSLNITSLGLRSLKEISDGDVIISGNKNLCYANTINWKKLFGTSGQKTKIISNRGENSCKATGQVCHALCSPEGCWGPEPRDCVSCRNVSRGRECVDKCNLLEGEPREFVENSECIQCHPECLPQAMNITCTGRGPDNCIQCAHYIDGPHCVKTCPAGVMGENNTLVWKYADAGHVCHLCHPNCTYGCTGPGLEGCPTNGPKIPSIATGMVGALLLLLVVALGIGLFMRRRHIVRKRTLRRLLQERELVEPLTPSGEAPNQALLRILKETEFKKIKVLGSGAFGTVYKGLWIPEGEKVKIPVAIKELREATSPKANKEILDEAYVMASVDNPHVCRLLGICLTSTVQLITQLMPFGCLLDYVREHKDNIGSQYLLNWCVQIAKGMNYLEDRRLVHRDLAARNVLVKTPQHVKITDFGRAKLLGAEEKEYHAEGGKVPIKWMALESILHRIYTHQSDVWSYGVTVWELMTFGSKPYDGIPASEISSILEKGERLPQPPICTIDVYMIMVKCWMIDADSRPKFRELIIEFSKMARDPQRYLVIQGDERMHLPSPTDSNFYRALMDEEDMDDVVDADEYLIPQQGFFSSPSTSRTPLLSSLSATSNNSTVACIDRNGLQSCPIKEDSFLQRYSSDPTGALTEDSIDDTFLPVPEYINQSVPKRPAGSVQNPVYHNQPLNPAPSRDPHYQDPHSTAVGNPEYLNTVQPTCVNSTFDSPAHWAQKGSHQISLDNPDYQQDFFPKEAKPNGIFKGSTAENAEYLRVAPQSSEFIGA

SMILES | IC50 (EGFR^L858R) [µM] | GI50 (Ba/F3 EGFR-Del19/T790M) [µM] | GI50 [1] [µM] | IC50 (EGFR^L58R/T790M) [µM] | IC50 (Ba/F3 Parental; anti-proliferation, read-out: BaF3 parental IC50) [µM] | GI50 (Ba/F3 EGFR-Del19/C797S) [µM] | IC50 (EGFR^L858R/T790M/C^797S) [µM] | IC50 (Ba/F3 Parental; [2]) [µM]
C[C@@H]1CCCOc2c(cnn2C)-c2nccc(n2)Nc2cc3c(cn2)c(N2CCC2)nn31 [(77)] | ≥ 1 | ≥ 1 | 0.1 to 1 | 0.01 to 0.1 | ≥ 1 | 0.1 to 1 | 0.1 to 1 | –
C[C@H]1CCCOc2c(cnn2C)-c2nccc(n2)Nc2cc3c(cn2)c(N2CCC2)nn31 [(78)] | 0.01 to 0.1 | 0.01 to 0.1 | 0.01 to 0.1 | < 0.01 | – | 0.01 to 0.1 | < 0.01 | 0.1 to 1
CCn1cc(-c2nn3c4cc(ncc24)Nc2ccnc(n2)-c2cnn(C)c2OCCC3C)cc1CN1CCN(C(C)C)CC1 (stereo not shown) [(80)] | < 0.01 | < 0.01 | < 0.01 | < 0.01 | – | < 0.01 | < 0.01 | 0.01 to 0.1
CCn1cc(CN2CCN(C)CC2)cc1-c1nn2c3cc(ncc13)Nc1ccnc(n1)-c1cnn(C)c1OCCC2C (stereo not shown) [(82)] | 0.1 to 1 | 0.01 to 0.1 | 0.01 to 0.1 | < 0.01 | – | 0.01 to 0.1 | < 0.01 | 0.01 to 0.1
CC1CCOc2c(cnn2C)-c2nccc(n2)Nc2cc3c(cn2)c(-c2cc(CN4CCN(C)CC4)cn2C)nn31 (stereo not shown) [(83)] | 0.01 to 0.1 | 0.01 to 0.1 | 0.01 to 0.1 | < 0.01 | – | 0.01 to 0.1 | < 0.01 | 0.01 to 0.1
CC1CCCOc2c(cnn2C)-c2nccc(n2)Nc2cc3c(cn2)c(-c2cc(CN4CCN(C)CC4)nn2C)nn31 (stereo not shown) [(84)] | 0.01 to 0.1 | 0.01 to 0.1 | 0.01 to 0.1 | < 0.01 | – | 0.1 to 1 | < 0.01 | 0.1 to 1
CCn1ccc(-c2nn3c4cc(ncc24)Nc2ccnc(n2)-c2cnn(C)c2OCCCC3C)n1 (stereo not shown) [(85)] | 0.01 to 0.1 | < 0.01 | < 0.01 | < 0.01 | – | 0.01 to 0.1 | < 0.01 | ≥ 1
CCn1nccc1-c1nn2c3cc(ncc13)Nc1ccnc(n1)-c1cnn(C)c1OCCCC2C (stereo not shown) [(86)] | 0.01 to 0.1 | 0.01 to 0.1 | 0.01 to 0.1 | < 0.01 | – | 0.01 to 0.1 | < 0.01 | ≥ 1
CC1CCCOc2c(cnn2C)-c2nccc(n2)Nc2cc3c(cn2)c(-c2ccc(CN4CCN(C5CC5)CC4)o2)nn31 (stereo not shown) [(87)] | 0.01 to 0.1 | 0.01 to 0.1 | < 0.01 | < 0.01 | – | 0.01 to 0.1 | < 0.01 | 0.1 to 1
CCn1cc(C(=O)N2CCN(C)CC2)cc1-c1nn2c3cc(ncc13)Nc1ccnc(n1)-c1cnn(C)c1OCCC2C (stereo not shown) [(88)] | 0.01 to 0.1 | 0.1 to 1 | 0.1 to 1 | < 0.01 | – | 0.1 to 1 | < 0.01 | 0.1 to 1
Cc1nn(CCC(C)(C)O)cc1-c1nn2c3cc(ncc13)Nc1ccnc(n1)-c1cnn(C)c1OCCCC2C (stereo not shown) [(89)] | 0.01 to 0.1 | 0.01 to 0.1 | 0.01 to 0.1 | < 0.01 | – | 0.01 to 0.1 | < 0.01 | 0.1 to 1
Cc1c(-c2nn3c4cc(ncc24)Nc2ccnc(n2)-c2cnn(C)c2OCCCC3C)cnn1CCC(C)(C)O (stereo not shown) [(92)] | 0.01 to 0.1 | 0.01 to 0.1 | 0.01 to 0.1 | < 0.01 | – | 0.01 to 0.1 | < 0.01 | 0.1 to 1
CC(C)N1CCN(CC2CCN(c3nn4c5cc(ncc35)Nc3ccnc(n3)-c3cnn(C)c3OCC[C@@H]4C)C2)CC1 (stereo partly shown) [(93)] | < 0.01 | < 0.01 | < 0.01 | < 0.01 | – | < 0.01 | < 0.01 | 0.01 to 0.1
CC1CCCOc2c(cnn2C)-c2nccc(n2)Nc2cc3c(cn2)c(-c2nnc(CN4CCN(C)CC4)o2)nn31 (stereo not shown) [(94)] | 0.1 to 1 | 0.1 to 1 | 0.1 to 1 | < 0.01 | – | 0.1 to 1 | < 0.01 | ≥ 1
C[C@H]1CCOc2c(cnn2C)-c2nccc(n2)Nc2cc3c(cn2)c(-c2cc(CN4CCN(C)CC4)n(C)n2)nn31 [(95)] | < 0.01 | 0.01 to 0.1 | 0.01 to 0.1 | < 0.01 | – | 0.01 to 0.1 | < 0.01 | 0.1 to 1
C[C@H]1CCOc2c(cnn2C)-c2nccc(n2)Nc2cc3c(cn2)c(-c2ccnc(N4CCN(C)CC4)c2)nn31 [(96)] | < 0.01 | 0.01 to 0.1 | 0.01 to 0.1 | < 0.01 | – | 0.01 to 0.1 | < 0.01 | 0.1 to 1
C[C@H]1CCOc2c(cnn2C)-c2nccc(n2)Nc2cc3c(cn2)c(N2CCN(C4CC4)CC2)nn31 [(97)] | 0.1 to 1 | 0.1 to 1 | 0.1 to 1 | < 0.01 | – | 0.1 to 1 | 0.01 to 0.1 | ≥ 1
C[C@H]1CCOc2c(cnn2C)-c2nccc(n2)Nc2cc3c(cn2)c(-c2cccc(CN4CCN(C)CC4)c2)nn31 [(98)] | < 0.01 | 0.01 to 0.1 | 0.01 to 0.1 | < 0.01 | – | 0.01 to 0.1 | < 0.01 | 0.1 to 1
C[C@H]1CCOc2c(cnn2C)-c2nccc(n2)Nc2cc3c(cn2)c(-c2ccncc2)nn31 [(100)] | 0.01 to 0.1 | 0.01 to 0.1 | 0.01 to 0.1 | < 0.01 | – | 0.01 to 0.1 | < 0.01 | 0.1 to 1
C[C@H]1CCOc2c(cnn2C)-c2nccc(n2)Nc2cc3c(cn2)c(-c2ccc(CN4CCN(C)CC4)n2C)nn31 [(101), (16S)-11,16-dimethyl-19-[1-methyl-5-[(4-methylpiperazin-1-yl)methyl]pyrrol-2-yl]-13-oxa-2,6,10,11,17,18,22,25-octazapentacyclo[15.5.2.13,7.08,12.020,24]pentacosa-1(22),3,5,7(25),8(12),9,18,20,23-nonaene] | < 0.01 | < 0.01 | < 0.01 | < 0.01 | – | < 0.01 | < 0.01 | 0.1 to 1
C[C@H]1CCOc2c(cnn2C)-c2nccc(n2)Nc2cc3c(cn2)c(-c2cnn(CCN(C)C)c2)nn31 [(102)] | < 0.01 | 0.01 to 0.1 | 0.01 to 0.1 | < 0.01 | – | 0.01 to 0.1 | < 0.01 | 0.1 to 1
C[C@H]1CCOc2c(cnn2C)-c2nccc(n2)Nc2cc3c(cn2)c(-c2csc(CN4CCN(C)CC4)n2)nn31 [(103)] | < 0.01 | < 0.01 | < 0.01 | < 0.01 | – | 0.01 to 0.1 | < 0.01 | 0.1 to 1
C[C@H]1CCOc2c(cnn2C)-c2nccc(n2)Nc2cc3c(cn2)c(N2CCOCC2)nn31 [(104)] | 0.01 to 0.1 | 0.01 to 0.1 | 0.01 to 0.1 | < 0.01 | – | 0.01 to 0.1 | < 0.01 | 0.1 to 1
C[C@H]1CCOc2c(cnn2C)-c2nccc(n2)Nc2cc3c(cn2)c(-c2cc(CN4CCOCC4)n(C)n2)nn31 [(105)] | < 0.01 | < 0.01 | < 0.01 | < 0.01 | – | 0.01 to 0.1 | < 0.01 | ≥ 1
C[C@H]1CCOc2c(cnn2C)-c2nccc(n2)Nc2cc3c(cn2)c(-c2cnc(CN4CCN(C)CC4)s2)nn31 [(106)] | < 0.01 | 0.01 to 0.1 | 0.01 to 0.1 | < 0.01 | – | < 0.01 | < 0.01 | 0.1 to 1
C[C@H]1CCOc2c(cnn2C)-c2nccc(n2)Nc2cc3c(cn2)c(-c2ncc(CN4CCN(C)CC4)s2)nn31 [(107), (16S)-11,16-dimethyl-19-[5-[(4-methylpiperazin-1-yl)methyl]thiazol-2-yl]-13-oxa-2,6,10,11,17,18,22,25-octazapentacyclo[15.5.2.13,7.08,12.020,24]pentacosa-1(22),3,5,7(25),8(12),9,18,20,23-nonaene] | < 0.01 | < 0.01 | < 0.01 | < 0.01 | – | < 0.01 | < 0.01 | 0.1 to 1
C[C@H]1CCOc2c(cnn2C)-c2nccc(n2)Nc2cc3c(cn2)c(-c2cccc(N4CCC(N(C)C)CC4)c2)nn31 [(108)] | < 0.01 | 0.01 to 0.1 | < 0.01 | < 0.01 | – | 0.01 to 0.1 | < 0.01 | 0.1 to 1
C[C@H]1CCOc2c(cnn2C)-c2nccc(n2)Nc2cc3c(cn2)c(-c2ccn(C)c2)nn31 [(109)] | < 0.01 | < 0.01 | < 0.01 | < 0.01 | – | < 0.01 | < 0.01 | 0.1 to 1
